Measured values as given in patent US20170008888A1 (KYORIN PHARMACEUTICAL CO., LTD., priority 2014, published 2017).
Like-named read-outs stand apart in the source and are kept apart here.

Columns and labels:
cynomolgus monkey PBMCs = experiment: Cytokine response by primary cynomolgus monkey PBMCs stimulated with LPS; type: cell-based, cynomolgus monkey (M. fascicularis); settings: Macaca fascicularis, PBMC, 100 ng/ml LPS 20 h
Experimental: Freshly isolated cynomolgus monkey (M. fascicularis) peripheral blood mononuclear cells (PBMCs) were purchased from SNBL (Everett, Wash.). Cells were seeded at 1.8e6 cells/ml in RPMI 1640 (Life Technologies, Grand Island, N.Y.) containing 10% (v/v) charcoal-dextran treated, heat inactivated FBS (Omega Scientific, Tarzana, Calif.), 0.05 mM 2-Mercaptoethanol (Sigma-Aldrich, St. Louis, Mo.), and 1×Pen/Strep Amphotericin B (Lonza, Allendale, N.J.). Cells were pre-treated with 0.1% DMSO or with a test compound for 1 h at 37° C. in a humidified atmosphere at 5% CO2. Compounds were tested at 10 μM down by ⅕ in a 4-point serial dilution series. Cells were then stimulated with 100 ng/ml LPS from E. coli 0111:B4 (EMD Millipore, Billerica, Mass.) for 20 h at 37° C. in a humidified atmosphere at 5% CO2. Supernatant was collected and analyzed using the Milliplex Map Non-human Primate Cytokine Magnetic Bead Panel Kit (EMD Millipore) as per manufacturer's protocols. Magnetic beads were read on the Bio-Plex MAGPIX multiplex reader instrument using the accompanying xPONENT 4.2 acquisition software (Bio-Rad Laboratories, Hercules, Calif.). Data were analyzed via the Bio-Plex Manager software v6.1 (Bio-Rad Laboratories).

[1] = test system: DNFB-induced ear inflammation mouse model; experiment: DNFB-induced ear inflammation (contact hypersensitivity) mouse model: ear weight; type: in vivo, mouse (Balb/c)
Experimental: In vivo T-cell mediated immune response was examined in a mouse model of CHS using the hapten dinitrofluorobenzene (DNFB) as the induction agent. Method for sensitization and elicitation of DNFB-induced CHS was modified from Xu et al. J. Exp. Med. 1996. 183:1001-1012. On Days 0 and 1 (sensitization), 20 μL of 0.5% v/v DNFB in acetone:olive oil (4:1) was applied to each hindpaw of 8 week old male mice (Balb/c, Charles River Laboratories; 10 mice per group unless otherwise noted). On Day 5 (elicitation) 10 μL of 0.2% v/v DNFB in acetone: olive oil (4:1) was applied to the dorsal surface of the right ear of each animal; 10 μL of acetone: olive oil (4:1) was applied to the dorsal surface of the left ear as control. Treatments were administered by group as indicated in the table below; on days when DNFB was used, the QD and the morning dose of BID as appropriate were administered 30 minutes-1 hr. prior to DNFB application. […] Approximately 24 hours after elicitation (Day 6), a 7 mm tissue punch from the central portion of both ears was collected and wet weights measured. The primary functional assessment was the difference in wet weights of the right (DNFB) vs. left (vehicle) ears compared to the vehicle treatment (Vehicle1-S) as an indicator of inflammation (Table 17). Ear tissue punches were flash frozen, stored at −70° C. and analyzed for cytokines (see below). Body weights of the mice were measured at baseline and at end of study, and there were no significant changes in weight in any treatment group during the study (data not shown).

FALZ = target: T1, FALZ (Homo sapiens, UniProt Q12830); experiment: Bromodomain binding assay: FALZ
T1 construct: made in house; host or cells: E. coli host derived from the BL21 strain (T7 phage lysate)
Experimental: (§1) T7 phage strains displaying bromodomains were grown in parallel in 24-well blocks in an E. coli host derived from the BL21 strain. E. coli were grown to log-phase and infected with T7 phage from a frozen stock (multiplicity of infection=0.4) and incubated with shaking at 32° C. until lysis (90-150 minutes). The lysates were centrifuged (5,000×g) and filtered (0.2 μm) to remove cell debris. […] The liganded beads were blocked with excess biotin and washed with blocking buffer (SeaBlock (Pierce), 1% BSA, 0.05 Tween 20, 1 mM DTT) to remove unbound ligand and to reduce non-specific phage binding. […] Test compounds (T62 and 46) were prepared as 1000× stocks in 100% DMSO and subsequently diluted 1:10 in monoethylene glycol (MEG) to create stocks at 100× the screening concentration (resulting stock solution is 10% DMSO/90% MEG). The compounds were then diluted directly into the assays such that the final concentration of DMSO and MEG were 0.1% and 0.9%, respectively. All reactions were performed in polystyrene 96-well plates in a final volume of 0.135 ml. […] The bromodomain concentration in the eluates was measured by qPCR. Compounds were assayed for binding activity against a panel of 40 bromodomain-containing proteins.

SMARCA2 = target: T2, SMARCA2 (Homo sapiens, UniProt P51531); experiment: Bromodomain binding assay: SMARCA2
T2 construct: made in house; host or cells: E. coli host derived from the BL21 strain (T7 phage lysate)
Experimental: as §1

BRPF3 = target: T3, BRPF3 (Homo sapiens, UniProt Q9ULD4); experiment: Bromodomain binding assay: BRPF3
T3 construct: T7 phage strains displaying bromodomains were grown in parallel; made in house; host or cells: E. coli host derived from BL21, infected with T7 phage
Experimental: as §1

ATAD2A = target: T4, ATAD2A (Homo sapiens, UniProt Q6PL18); experiment: Bromodomain binding assay: ATAD2A
T4 construct: T7 phage strains displaying bromodomains were grown in parallel; made in house; host or cells: E. coli host derived from BL21, infected with T7 phage
Experimental: as §1

[2] = target: T5, panel of 40 bromodomain-containing proteins (Homo sapiens, UniProt Q92793); experiment: Bromodomain binding assay (T7 phage, qPCR): further proteins of the panel; settings: CREBBP
T5 construct: T7 phage strains displaying bromodomains were grown in parallel; made in house; host or cells: E. coli host derived from BL21, infected with T7 phage
Experimental: as §1

[3] = target: T6, panel of 40 bromodomain-containing proteins (Homo sapiens, UniProt Q09472); experiment: as above; settings: EP300
T6 construct: T7 phage strains displaying bromodomains were grown in parallel; made in house; host or cells: E. coli host derived from BL21, infected with T7 phage
Experimental: as §1

[4] = read-out: EC50 (μM) under LPS stimulation, G-CSF
[5] = read-out: EC50 (μM) under LPS stimulation, GM-CSF
[6] = read-out: EC50 (μM) under LPS stimulation, IFN-γ
[7] = read-out: EC50 (μM) under LPS stimulation, IL-1ra
[8] = read-out: EC50 (μM) under LPS stimulation, IL-1β
[9] = read-out: EC50 (μM) under LPS stimulation, IL-4
[10] = read-out: EC50 (μM) under LPS stimulation, IL-6
[11] = read-out: EC50 (μM) under LPS stimulation, IL-8
[12] = read-out: EC50 (μM) under LPS stimulation, IL-10
[13] = read-out: EC50 (μM) under LPS stimulation, IL-12/IL-23 (p40)
[14] = read-out: EC50 (μM) under LPS stimulation, MCP-1
[15] = read-out: EC50 (μM) under LPS stimulation, MIP-1α
[16] = read-out: EC50 (μM) under LPS stimulation, MIP-1β
[17] = read-out: EC50 (μM) under LPS stimulation, TNF-α
[18] = read-out: EC50 (μM) under LPS stimulation, VEGF
[19] = read-out: EC50 (μM) under LPS stimulation, sCD40L
[20] = 25 mg/kg PO, BID on Day 5 (elicitation)
[21] = 60 mg/kg PO, BID Days 0-5 (from sensitization)
[22] = 60 mg/kg PO, BID on Day 5 (elicitation)

T6 sequence (Q09472 1045-1161): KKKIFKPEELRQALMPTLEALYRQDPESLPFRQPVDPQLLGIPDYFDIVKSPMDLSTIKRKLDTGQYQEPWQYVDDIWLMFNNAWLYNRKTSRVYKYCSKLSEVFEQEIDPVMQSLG
T3 sequence (Q9ULD4 589-693 limits assumed, species assumed): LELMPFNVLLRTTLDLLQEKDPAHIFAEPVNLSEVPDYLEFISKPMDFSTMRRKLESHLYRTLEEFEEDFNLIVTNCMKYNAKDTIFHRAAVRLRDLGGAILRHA
T4 sequence (Q6PL18 980-1092 limits assumed): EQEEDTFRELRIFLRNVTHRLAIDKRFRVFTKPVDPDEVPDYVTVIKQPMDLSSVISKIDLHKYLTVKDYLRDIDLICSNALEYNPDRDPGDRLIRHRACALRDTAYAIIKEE
T5 sequence (Q92793 1081-1197): as the sequence (Q09472 1045-1161) above, with K1R, S51N, I77V, Y97F, S102A counted along it
T2 sequence (P51531 1378-1506 limits assumed): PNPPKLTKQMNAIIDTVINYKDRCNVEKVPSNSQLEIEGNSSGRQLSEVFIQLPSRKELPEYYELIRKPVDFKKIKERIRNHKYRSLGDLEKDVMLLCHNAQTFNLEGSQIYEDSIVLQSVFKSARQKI

Row | Structure (SMILES) | EC50 (cynomolgus monkey PBMCs; [4]) [µM] | EC50 (cynomolgus monkey PBMCs; [5]) [µM] | EC50 (cynomolgus monkey PBMCs; [6]) [µM] | EC50 (cynomolgus monkey PBMCs; [7]) [µM] | EC50 (cynomolgus monkey PBMCs; [8]) [µM] | EC50 (cynomolgus monkey PBMCs; [9]) [µM] | EC50 (cynomolgus monkey PBMCs; [10]) [µM] | EC50 (cynomolgus monkey PBMCs; [11]) [µM] | EC50 (cynomolgus monkey PBMCs; [12]) [µM] | EC50 (cynomolgus monkey PBMCs; [13]) [µM] | EC50 (cynomolgus monkey PBMCs; [14]) [µM] | EC50 (cynomolgus monkey PBMCs; [15]) [µM] | EC50 (cynomolgus monkey PBMCs; [16]) [µM] | EC50 (cynomolgus monkey PBMCs; [17]) [µM] | EC50 (cynomolgus monkey PBMCs; [18]) [µM] | EC50 (cynomolgus monkey PBMCs; [19]) [µM] | % Reduction Weight Increase Vs. Vehicle 1 Weight Increase [1, 20] [%] | % Reduction Weight Increase Vs. Vehicle 1 Weight Increase [1, 21] [%] | % Reduction Weight Increase Vs. Vehicle 1 Weight Increase [1, 22] [%] | Kd (FALZ) [nM] | other results
1 | CCOc1cc(C(=O)N2CCCN(C)CC2)ccc1Nc1cc2c(cn1)N(C)C(=O)c1ccccc1N2C [Compound 8] | 0.58 | 0.5 | 0.55 | 0.71 | 0.47 | 1.29 | 1.42 | 0.98 | 0.52 | 0.75 | 0.32 | 1.63 | 4.45 | 0.63 | 0.9 | 1.14 | −9.4 | −38.5 | −22.6 |  | 
2 | CCOc1cc(C(=O)N2CCC(N3CCCC3)CC2)ccc1Nc1cc2c(cn1)N(C)C(=O)c1ccccc1N2C [Compound 46, 3-(2-Ethoxy-4-(4-(pyrrolidin-1-yl)piperidine-1-carbonyl)phenylamino)-5,11-dimethyl-5H-benzo[e]pyrido[3,4-b][1,4]diazepin-10(11H)-one] | 0.26 | 0.18 | 0.28 | 0.32 | 0.2 | 0.48 | 0.6 | 0.35 | 0.31 | 0.36 | 0.13 | 0.78 | 2.2 | 0.24 | 0.45 | 0.41 | −39.5 | −39.5 | −40.5 | > 20000 | Kd (SMARCA2): > 20000 nM; Kd (BRPF3): > 20000 nM; Kd (ATAD2A): > 20000 nM; Kd [2]: 3300 nM; Kd [3]: 7500 nM
3 | CCOc1cc(C(=O)N[C@H]2CC[C@H](O)CC2)ccc1Nc1cc2c(cn1)N(C)C(=O)c1ccccc1N2C [Compound T62] |  |  |  |  |  |  |  |  |  |  |  |  |  |  |  |  |  |  |  | > 20000 | Kd (SMARCA2): > 20000 nM; Kd (BRPF3): > 20000 nM; Kd (ATAD2A): > 20000 nM; Kd [2]: 1200 nM; Kd [3]: 1100 nM
